Holding throughout (type): cell-based
Assay [1] deals with T1, Nav1.5 (Homo sapiens, UniProt Q14524).
T1 construct: host or cells: HEK-293
Briefly: hNav1.5 Sodium Channel Assay (peak), Qube APC. The settings on record: Antagonist mode; HEK-Nav1.5 (Peak); test compound. The procedure: (§1) Where presented, IC50 values were determined by a non-linear, least squares regression analysis.
(§2) Recombinant HEK-293 cells stably transfected with human NavL.5 cDNA, recombinant HEK293 cell line expressing the human Cavl.2 (L-type voltage gated calcium channel, hCavl.2 alC/02a/a281, and recombinant CHO-K1 cells stably transfected with human hERG cDNA were used separately in each of these assays.
(§3) Ion Channels tested were Eurofins Panel Part Number: CPROFullQB2DR Voltage-Gated Sodium: HEK-Nav1.5 (Peak), HEK-Nav1.5 (Late, Antagonist) Voltage-Gated Potassium: HEK-Kv4.3/KChIP2, CHO-hERG, CHO-KCNQ1/minK Voltage-Gated Calcium: HEK-Cav1.2 Inward-Rectifying Voltage-Gated Potassium: HEK-Kir2.1.
(§4) Methods employed in this study have been developed and validated with reliability and reproducibility by Eurofins. Assays were performed under conditions below. […] Peak current is measured during the step to −15 mV. […] Onset and steady state block of hKv4.3 current is measured using a pulse pattern from −80 mV to 40 mV amplitude for a 110 ms duration, and finally a 100 ms ramp (1.2 V/s) to −80 mV. This paradigm is delivered once every 5s to monitor the current amplitude. […] Cavl.2 currents are evoked by a 50 ms pulse to −100 mV followed by a 200 ms pulse to +20 mV before returning to the holding potential of −90 mV. This paradigm is delivered three times every 60s to monitor the current amplitude. [0220] hNav1.5 Late Current Sodium Channel Assay—Qube APC Onset and steady state block of Late Nay1.5 current is measured using a pulse pattern, repeated every 5 sec, consisting of a hyperpolarizing pulse to −120 mV for a 200 ms duration, depolarization to −15 mV amplitude for a 40 ms duration, followed by step to 40 mV for 200 ms and finally a 100 ms ramp (1.2 V/s) to a holding potential of −80 mV. Late current is measured as charge current elicited during the ramp with 50 nM ATXII.

Assay [2] concerns the target T2, Cav1.2 (Homo sapiens, UniProt Q13936).
T2 construct: host or cells: HEK293
The assay is described as follows: hCav1.2 (L-type) Calcium Channel Assay, Qube APC. The conditions noted are these: Antagonist mode; HEK-Cav1.2; test compound. The procedure:
as §1, §2, §3, §4

The target in assay [3] is T3, KCNQ1/mink (Homo sapiens, UniProt P51787).
T3 construct: host or cells: CHO
Briefly: hKCNQ1/hminK Potassium Channel Assay, Qube APC. The settings on record: Antagonist mode; CHO-KCNQ1/minK; test compound. The procedure: (§5) Electrophysiological assays were conducted to profile three compounds ((R)-methylone, (S)-methylone, or racemic methylone) for activities on the ion channel targets specified below using the Qube electrophysiological platform. Where presented, IC50 values were determined by a non-linear, least squares regression analysis. Reference standards were run as an integral part of each assay to ensure the validity of the results obtained.
as §3
(§6) hKCNQ1/hminK Potassium Channel Assay—Qube APC After whole cell configuration is achieved, the cells are held at −80 mV. KCNQ1/minK currents are evoked by a 1000 ms pulse from −80 mV to 60 mV followed by a ramp from 60 mV to −80 mV over 115 ms with the outward peak currents measured upon depolarization of the cell membrane. This paradigm is delivered once every 15s to monitor the current amplitude. [0223] hKir2.1 Potassium Channel Assay—Qube APC After whole cell configuration is achieved, the cells are held at −30 mV. Kir2.1 currents are evoked by a single 500 ms pulse to -120 mV before returning to the holding potential of −30 mV. This paradigm is delivered once every 20s to monitor the current amplitude.

Assay [4] concerns the target T4, Kir2.1 (Homo sapiens, UniProt P63252).
T4 construct: host or cells: HEK
T4 sequence (P63252 1-427): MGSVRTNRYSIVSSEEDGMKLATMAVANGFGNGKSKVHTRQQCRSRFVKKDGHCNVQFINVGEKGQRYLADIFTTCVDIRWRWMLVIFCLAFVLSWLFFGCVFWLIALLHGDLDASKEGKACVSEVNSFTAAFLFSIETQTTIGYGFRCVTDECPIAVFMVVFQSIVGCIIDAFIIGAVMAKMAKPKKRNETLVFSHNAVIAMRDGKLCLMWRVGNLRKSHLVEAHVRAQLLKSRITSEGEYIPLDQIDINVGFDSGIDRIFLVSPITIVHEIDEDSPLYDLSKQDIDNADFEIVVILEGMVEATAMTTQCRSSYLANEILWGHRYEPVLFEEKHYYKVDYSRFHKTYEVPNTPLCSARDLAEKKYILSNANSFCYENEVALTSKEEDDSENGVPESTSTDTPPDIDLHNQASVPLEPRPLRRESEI
The conditions noted are these: Antagonist mode; HEK-Kir2.1; test compound. As for the experimental part: as §5, §3, §6

Counter-ions that a name gives are not always drawn.

T2 sequence (Q13936 whole entry): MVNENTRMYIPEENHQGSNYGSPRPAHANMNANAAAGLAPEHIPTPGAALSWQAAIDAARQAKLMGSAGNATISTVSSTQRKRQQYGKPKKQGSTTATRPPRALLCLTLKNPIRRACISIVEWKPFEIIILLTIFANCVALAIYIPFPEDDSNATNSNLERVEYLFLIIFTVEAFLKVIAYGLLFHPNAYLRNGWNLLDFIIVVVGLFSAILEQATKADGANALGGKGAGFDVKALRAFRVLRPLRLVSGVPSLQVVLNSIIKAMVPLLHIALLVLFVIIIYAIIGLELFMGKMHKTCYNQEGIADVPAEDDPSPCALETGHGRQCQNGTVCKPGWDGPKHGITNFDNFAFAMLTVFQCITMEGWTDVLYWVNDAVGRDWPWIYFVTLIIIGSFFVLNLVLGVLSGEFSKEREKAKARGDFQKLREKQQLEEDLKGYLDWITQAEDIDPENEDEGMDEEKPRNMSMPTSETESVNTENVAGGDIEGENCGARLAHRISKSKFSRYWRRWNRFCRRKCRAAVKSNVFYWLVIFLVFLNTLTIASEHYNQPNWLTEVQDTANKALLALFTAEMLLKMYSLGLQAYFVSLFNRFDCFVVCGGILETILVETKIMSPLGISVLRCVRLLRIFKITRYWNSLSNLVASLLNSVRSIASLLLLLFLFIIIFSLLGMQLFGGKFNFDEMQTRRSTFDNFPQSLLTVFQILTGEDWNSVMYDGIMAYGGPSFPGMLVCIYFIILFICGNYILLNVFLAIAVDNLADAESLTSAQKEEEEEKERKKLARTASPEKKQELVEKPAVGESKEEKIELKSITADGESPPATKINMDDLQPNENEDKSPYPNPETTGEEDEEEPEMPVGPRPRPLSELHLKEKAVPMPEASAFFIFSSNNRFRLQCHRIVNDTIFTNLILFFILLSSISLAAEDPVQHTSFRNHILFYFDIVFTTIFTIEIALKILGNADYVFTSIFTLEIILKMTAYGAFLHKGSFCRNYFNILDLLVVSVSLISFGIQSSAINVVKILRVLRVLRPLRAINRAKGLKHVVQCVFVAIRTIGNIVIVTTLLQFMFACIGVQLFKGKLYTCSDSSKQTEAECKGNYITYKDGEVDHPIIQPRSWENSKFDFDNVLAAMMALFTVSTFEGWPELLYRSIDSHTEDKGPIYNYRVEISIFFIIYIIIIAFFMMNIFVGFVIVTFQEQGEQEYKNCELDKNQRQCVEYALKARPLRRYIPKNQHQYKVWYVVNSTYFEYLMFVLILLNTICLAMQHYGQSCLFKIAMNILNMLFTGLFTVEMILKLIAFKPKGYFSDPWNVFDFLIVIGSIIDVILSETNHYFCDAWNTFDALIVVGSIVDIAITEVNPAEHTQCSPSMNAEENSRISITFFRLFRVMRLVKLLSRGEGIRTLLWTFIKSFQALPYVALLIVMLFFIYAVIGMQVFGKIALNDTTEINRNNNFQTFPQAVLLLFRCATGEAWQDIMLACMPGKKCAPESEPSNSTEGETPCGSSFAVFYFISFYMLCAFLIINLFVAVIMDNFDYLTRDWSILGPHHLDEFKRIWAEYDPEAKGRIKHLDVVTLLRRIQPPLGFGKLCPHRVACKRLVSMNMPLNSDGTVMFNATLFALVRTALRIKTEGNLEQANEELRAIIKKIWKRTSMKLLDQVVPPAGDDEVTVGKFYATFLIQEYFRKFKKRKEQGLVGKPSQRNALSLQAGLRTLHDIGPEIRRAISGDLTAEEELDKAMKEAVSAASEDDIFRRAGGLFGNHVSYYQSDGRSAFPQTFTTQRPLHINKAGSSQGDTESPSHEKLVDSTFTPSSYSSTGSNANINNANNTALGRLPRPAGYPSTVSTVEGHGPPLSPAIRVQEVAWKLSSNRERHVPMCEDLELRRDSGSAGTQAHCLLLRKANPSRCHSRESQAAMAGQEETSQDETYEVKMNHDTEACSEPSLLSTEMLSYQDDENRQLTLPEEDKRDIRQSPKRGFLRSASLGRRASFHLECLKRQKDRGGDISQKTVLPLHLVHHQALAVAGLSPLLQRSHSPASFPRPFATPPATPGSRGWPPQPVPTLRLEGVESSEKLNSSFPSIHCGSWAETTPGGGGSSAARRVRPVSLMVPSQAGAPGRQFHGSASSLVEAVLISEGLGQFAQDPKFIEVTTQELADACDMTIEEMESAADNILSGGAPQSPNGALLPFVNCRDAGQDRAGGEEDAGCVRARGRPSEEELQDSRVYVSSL
T2 sequence (Q08289 1-605 isoform Q08289-2 partner): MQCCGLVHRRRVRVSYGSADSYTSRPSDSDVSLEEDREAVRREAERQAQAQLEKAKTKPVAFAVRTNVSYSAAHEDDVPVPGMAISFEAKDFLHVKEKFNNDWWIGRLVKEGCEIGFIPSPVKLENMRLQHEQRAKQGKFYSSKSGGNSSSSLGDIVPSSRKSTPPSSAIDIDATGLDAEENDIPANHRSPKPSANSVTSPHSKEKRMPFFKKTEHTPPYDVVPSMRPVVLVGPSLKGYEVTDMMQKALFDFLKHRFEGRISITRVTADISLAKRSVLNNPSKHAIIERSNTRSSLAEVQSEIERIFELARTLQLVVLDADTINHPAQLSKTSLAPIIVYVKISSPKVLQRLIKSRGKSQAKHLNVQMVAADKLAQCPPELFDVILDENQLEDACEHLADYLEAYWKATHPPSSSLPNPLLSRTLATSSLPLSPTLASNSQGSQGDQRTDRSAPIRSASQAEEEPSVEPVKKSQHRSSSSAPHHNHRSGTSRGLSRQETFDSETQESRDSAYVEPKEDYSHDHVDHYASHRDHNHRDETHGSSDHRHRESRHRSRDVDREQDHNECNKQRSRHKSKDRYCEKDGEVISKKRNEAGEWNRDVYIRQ
T2 sequence (P54289 25-956 partner limits assumed): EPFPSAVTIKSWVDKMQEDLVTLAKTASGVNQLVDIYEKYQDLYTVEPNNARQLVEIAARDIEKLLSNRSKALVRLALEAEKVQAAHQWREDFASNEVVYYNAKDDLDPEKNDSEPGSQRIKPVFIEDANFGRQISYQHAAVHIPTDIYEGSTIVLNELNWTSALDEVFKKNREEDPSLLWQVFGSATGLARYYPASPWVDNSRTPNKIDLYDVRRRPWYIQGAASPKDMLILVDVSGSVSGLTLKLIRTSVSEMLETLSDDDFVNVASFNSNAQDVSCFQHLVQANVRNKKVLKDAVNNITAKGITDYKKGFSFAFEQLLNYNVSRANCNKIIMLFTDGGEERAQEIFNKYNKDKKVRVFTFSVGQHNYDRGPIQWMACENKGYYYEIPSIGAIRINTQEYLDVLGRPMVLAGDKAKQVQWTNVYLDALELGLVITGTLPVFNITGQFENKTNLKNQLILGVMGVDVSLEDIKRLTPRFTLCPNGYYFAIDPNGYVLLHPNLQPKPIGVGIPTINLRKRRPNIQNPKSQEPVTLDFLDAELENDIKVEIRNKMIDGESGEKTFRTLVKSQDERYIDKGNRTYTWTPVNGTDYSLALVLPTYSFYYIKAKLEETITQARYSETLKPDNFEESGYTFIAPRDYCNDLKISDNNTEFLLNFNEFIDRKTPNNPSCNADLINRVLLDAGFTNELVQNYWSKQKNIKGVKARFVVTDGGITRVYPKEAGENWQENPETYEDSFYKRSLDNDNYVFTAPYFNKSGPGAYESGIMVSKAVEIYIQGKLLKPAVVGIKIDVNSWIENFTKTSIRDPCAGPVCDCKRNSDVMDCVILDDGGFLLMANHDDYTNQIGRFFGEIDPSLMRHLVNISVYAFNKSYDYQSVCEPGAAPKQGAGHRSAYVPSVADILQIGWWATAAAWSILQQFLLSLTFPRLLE
T2 sequence (P54289 957-1103 partner limits assumed): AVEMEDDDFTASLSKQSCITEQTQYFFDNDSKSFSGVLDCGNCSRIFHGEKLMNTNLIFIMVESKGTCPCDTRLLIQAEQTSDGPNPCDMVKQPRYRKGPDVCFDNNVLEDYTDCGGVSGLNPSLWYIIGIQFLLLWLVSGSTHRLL
T3 sequence (P51787 whole entry): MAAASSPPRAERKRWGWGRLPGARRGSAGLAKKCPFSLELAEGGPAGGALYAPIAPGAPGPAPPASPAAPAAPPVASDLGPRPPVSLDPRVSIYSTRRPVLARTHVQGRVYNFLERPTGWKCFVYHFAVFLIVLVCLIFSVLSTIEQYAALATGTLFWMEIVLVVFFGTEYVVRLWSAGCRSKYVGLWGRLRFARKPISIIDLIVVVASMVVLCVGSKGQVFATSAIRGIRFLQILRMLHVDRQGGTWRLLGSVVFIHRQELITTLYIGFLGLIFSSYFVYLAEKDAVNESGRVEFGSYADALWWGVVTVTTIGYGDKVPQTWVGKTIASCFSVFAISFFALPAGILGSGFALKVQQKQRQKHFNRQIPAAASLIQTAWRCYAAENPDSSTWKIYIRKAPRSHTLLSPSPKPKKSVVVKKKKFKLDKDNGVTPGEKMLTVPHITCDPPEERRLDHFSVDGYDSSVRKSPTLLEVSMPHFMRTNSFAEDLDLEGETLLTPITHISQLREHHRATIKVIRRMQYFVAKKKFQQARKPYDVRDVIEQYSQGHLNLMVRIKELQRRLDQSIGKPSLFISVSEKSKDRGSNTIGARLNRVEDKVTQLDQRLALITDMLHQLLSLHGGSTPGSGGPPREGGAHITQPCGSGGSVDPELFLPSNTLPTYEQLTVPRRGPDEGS

As for `CN[C@H](C)C(=O)c1ccc2c(c1)OCO2` [(R)-methylone], the “Estimated IC50” value in assay [1], in assay [2], in assay [3] and in assay [4] was “N/C (N/C indicates observed mean inhibition was <25%)” each time.

As to `CN[C@@H](C)C(=O)c1ccc2c(c1)OCO2` [(S)-methylone], the “Estimated IC50” value in assay [1], in assay [2], in assay [3] and in assay [4] was “N/C (N/C indicates observed mean inhibition was <25%)” in each case.

Turning to `CNC(C)C(=O)c1ccc2c(c1)OCO2` (stereo not drawn) [Methylone HCl, methylone HCl], the “Estimated IC50” value in assay [1], in assay [2], in assay [3] and in assay [4] was “N/C (N/C indicates observed mean inhibition was <25%)” throughout.

The record behind these values is patent publication US20240374558A1, “PREPARATION OF PHENE[…] […] STEREOISOMERS THEREOF AND PRECURSORS THEREOF” (priority 2022, published 2024).
